Molecules are shown by their SMILES.

This series in a line: gradient 5% acetonitrile 3 min, to 50% in 2 min, to 85% in 15 min, held 3 min, 100 µL/min. The conditions noted are these: column: Zorbax Extend-C18 2.1 x 50 mm; eluents: water / acetonitrile, 0.1% formic acid. The gist of the method:
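Pure standards were analyzed in mixtures of ~100 molecules using HPLC coupled to a quadrupole time-of-flight mass spectrometer, in both positive and negative ionization mode. Separation used a Zorbax Extend-C18 column (2.1 × 50 mm, 1.8 μm) at 100 μL/min, with water and acetonitrile each containing 0.1% formic acid. Dead and dwell volumes were 40 μL and 900 μL, and data were collected over 3 months. Retention time was read from computationally picked adduct peaks, each inspected manually.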
`COc1ccc2[nH]cc(CCNC(=O)CN3C(=O)CCn4nc(-c5cn(C)c6ccccc56)cc43)c2c1`: the RP-LC retention time worked out at 797 s. As for `CC(C)C[C@@H](C(=O)N[C@H](C(=O)OC1CCCC1)c1ccccc1)[C@H](O)C(=O)NO`, the figure is 822 s; as for `Clc1ccc2nnc(Cc3ccccc3)n2n1`, 739 s. In turn, `CC(C)n1c(C2CCN(C(=O)c3cccc(N(C)C)c3)C2)nc2ccncc21` (stereo not drawn) gave an RP-LC retention time of 529 s. `Cc1cc(C)c(S(=O)(=O)N2CCCC2c2nc(-c3cccc(F)c3)no2)c(C)c1` (stereo not drawn) displayed an RP-LC retention time of 1270 s. In the case of `COC(=O)c1cc2c(=O)n(CCc3c[nH]c4ccc(OC)cc34)ccc2nc1C`, the RP-LC retention time was 774 s. As for `CCCN1C(=O)COc2ccc(-c3noc(-c4ccc(OC)cc4)n3)cc21`, the figure is 1140 s; as for `CCCOc1ccc(-c2nc(-c3ccc(N)cc3)cs2)cc1`, 1120 s.

`COc1ccc(-c2csc(N3CCN(c4ccc([N+](=O)[O-])c(-n5nc(C)cc5C)c4)CC3)n2)cc1` showed an RP-LC retention time of 1150 s. Take `CSc1ccc(CNC(=O)Cc2cn(C)c3ncccc23)cc1`: the RP-LC retention time turned out to be 686 s. As for `CCCn1ncc(N2CCC(C(=O)N3CCC(C)CC3)CC2)cc1=O`, the figure is 734 s. Molecule `Cc1ccccc1NC(=O)C1CC(=O)N(c2ccc3c(c2)CCN3C(=O)C2CC2)C1` (stereo not drawn) gave an RP-LC retention time of 717 s. For `CC(=O)N1c2ccc(S(=O)(=O)N3CCCCC3)cc2CC1C(=O)N1CCC(C)CC1` (stereo not drawn) the value was 881 s; for `CSc1ccccc1NC(=O)c1cnc2ccc(C)cn2c1=O`, 806 s; for `Cc1ccc(NC(=O)CN2CCc3[nH]c4c(C)cc(F)cc4c(=O)c3C2)c(Cl)c1`, 665 s. For `CCOC(=O)c1ccc(Nc2c(-c3ccc(Cl)cc3)nc3cnccn23)cc1` the value was 964 s; for `Cc1csc(-c2cc(S(=O)(=O)N3CCN(c4ccccc4)CC3)c(C)s2)n1`, 1160 s. `CCN1C(=O)C2(CCN(S(=O)(=O)c3ccc(Cl)c(C)c3)CC2)c2ccccc21`: the RP-LC retention time was determined as 1100 s.

Regarding `Cc1ccc(C(CC(=O)N2CCN(c3ccccn3)CC2)N2Cc3ccccc3C2=O)cc1` (stereo not drawn), the RP-LC retention time was determined as 655 s. For `Cn1c(=O)sc2cc(S(=O)(=O)N3CCC(C(=O)NCc4ccc5c(c4)OCO5)CC3)ccc21` the value was 784 s; for `COc1ccc(OC)c(-c2cc(C(=O)NCC#CCN3CCc4ccccc4C3)[nH]n2)c1`, 592 s. As for `Cc1nn(CC(=O)NCCC(C)C)c(=O)c2nc(-c3ccccc3)sc12`, the figure is 871 s. As for `CN(C)S(=O)(=O)c1ccc2c(c1)N(CC(=O)NC1CCCCCCC1)C(=O)C1CCCCN21` (stereo not drawn), the figure is 692 s; as for `CCOC(=O)COc1ccccc1C1CC(c2ccc(Br)cc2)=NN1C(C)=O` (stereo not drawn), 1050 s; as for `CCOC(=O)CCNC(=O)N1CCC(N2CCN(Cc3ccc(C)cc3)C(=O)C2=O)CC1`, 681 s. For `CCCCOc1ccc(Nc2cc(Cl)ccc2C(=O)O)cn1`, the RP-LC retention time amounted to 1260 s. As for `CCOC(=O)c1cn(Cc2cccc(F)c2)c2nc(C)ccc2c1=O`, the figure is 878 s. The molecule `CC(C)N1CCn2cc(S(=O)(=O)NCc3ccccc3Cl)cc2C1=O` registered an RP-LC retention time of 769 s.

Molecule `CC1=C(C(=O)OCCc2ccccc2)C(c2ccc(F)cc2)NC(=O)N1` (stereo not drawn) gave an RP-LC retention time of 862 s.

Molecule `O=C(Nc1ccc2c(c1)C(=O)Nc1ccccc1O2)Oc1ccccc1` yielded an RP-LC retention time of 813 s. As for `CSc1cccc(NC(=O)Cn2cc(-c3ccccc3)c3ncn(C4CC4)c(=O)c32)c1`, the figure is 1020 s. As for `COc1cc2c(cc1OC)C1C(C(=O)NCCCN3CCC(C)CC3)c3ccccc3C(=O)N1CC2` (stereo not drawn), the figure is 629 s; as for `O=C(Nc1ccc(F)c(F)c1)c1cc2n(n1)CCCC2`, 887 s; as for `CCn1c(CCNC(=O)c2cc(F)ccc2F)nc2cccnc21`, 641 s.

In turn, `Cc1cc2c(cc1C)N(CC(=O)Nc1ccc(F)cc1F)C(=O)CC(c1cccs1)=N2` displayed an RP-LC retention time of 1070 s. For `Cc1ccccc1-c1noc(-c2ccc(S(=O)(=O)N3CCCC3)o2)n1` the value was 1070 s; for `CCCCN1C(=O)C(CC(=O)NC2CCCC2)Sc2ncccc21` (stereo not drawn), 808 s; for `O=C(Cn1cccc(-c2nc(-c3ccc(Br)cc3)no2)c1=O)Nc1ccc2c(c1)OCO2`, 935 s. As for `CNC(=O)N1CCCC(c2cccc(C(=O)NCc3cccc(Br)c3)c2)C1` (stereo not drawn), the figure is 819 s; as for `CCOc1ccc(C(=O)N2CCC3(CC2)NCc2ccccc2-n2ccnc23)cc1`, 619 s. As for `CCNC(=O)C1CCCN(c2nc3ncn(CC(=O)NCCC4=CCCCC4)c(=O)c3s2)C1` (stereo not drawn), the figure is 692 s; as for `Cc1ccc(C)c(N2CCN(c3ccnc(SCC(=O)Nc4ccc(F)cc4F)n3)CC2)c1`, 1000 s. `O=C(C1COc2ccccc2O1)N1CCc2cc(-c3csc(C4CC4)n3)ccc21` (stereo not drawn): the RP-LC retention time turned out to be 1190 s. As for `CC(=O)Nc1cccc(C2OC(c3cc(Br)ccc3OC(C)=O)=NN2C(C)=O)c1` (stereo not drawn), the figure is 828 s. For the molecule `Cc1ccc(C(CNC(=O)c2cc(=O)c3ccccc3o2)N(C)C)cc1` (stereo not drawn), the RP-LC retention time is 626 s. For `CCn1nc(C)c(CCN(C)C(=O)Nc2ccccc2C(=O)OC)c1C` the value was 744 s; for `C=CCNC(=O)c1cn(CCC)nc1S(=O)(=O)N1CCN(c2ccccc2OCC)CC1`, 1030 s. As for `N#Cc1ccc(NC(=O)C2Oc3ccccc3NC2=O)cc1` (stereo not drawn), the figure is 727 s; as for `O=C(NCc1ccc2c(c1)OCO2)C(=O)NCC1CCCO1` (stereo not drawn), 639 s; as for `CN(C)S(=O)(=O)c1ccc2c(c1)N(CC(=O)N1CCCCC1)C(=O)C1CCCCN21` (stereo not drawn), 812 s. As for `OC(CN1CCN(c2ccc(F)cc2)CC1)c1ccc2c(c1)OCO2` (stereo not drawn), the figure is 635 s; as for `CCOc1cccc(C2c3[nH]c4ccccc4c3CCN2C(=O)c2ccncc2)c1` (stereo not drawn), 959 s; as for `COc1ccc(Cl)cc1C(=O)N1CCC2(CC1)N=C(c1ccc(Br)cc1)NO2`, 959 s.

`Cc1sc2ccn(CC(C)C)c(=O)c2c1C(=O)NCc1ccco1` registered an RP-LC retention time of 889 s. Regarding `Cc1cccc(CNC(=O)CCc2c(-c3ccc(Br)cc3)nc3ccccn23)c1`, the RP-LC retention time was determined as 718 s.

With `Cc1c(-c2cccc(NC(=O)c3cc(Br)ccc3Cl)c2)nc2ncccn12`, the RP-LC retention time was 716 s. For `CCOC(=O)c1nc(NCc2ccc(Cl)cc2)c2ccccc2n1` the value was 868 s. As for `O=S(=O)(c1ccc(-c2nnc(C3CC3)o2)o1)N1CCCC1`, the figure is 771 s; as for `CCCCN1CC(c2nc3ccccc3n2CC(=O)N(c2ccccc2)C(C)C)CC1=O` (stereo not drawn), 792 s; as for `CCCCS(=O)(=O)c1cc2c(cc1NC(=O)c1c(F)cccc1F)n(C)c(=O)n2C`, 800 s.

`CCOc1ccccc1-n1ccn(Cc2nc(-c3cccc(OC)c3)no2)c(=O)c1=O` had an RP-LC retention time of 856 s.

Consider `O=C(CSc1nc2ccccc2c(=O)n1Cc1cccs1)Nc1ncn[nH]1`, for which the RP-LC retention time turned out to be 670 s. In turn, `CCOC(=O)N1CCN(c2ncc(C(=O)NCc3ccccc3)c(N)n2)CC1` had an RP-LC retention time of 656 s.

As to `COc1cc(-c2noc(C3CC(=O)N(c4cccc(Cl)c4)C3)n2)cc(OC)c1OC` (stereo not drawn), the RP-LC retention time is 1010 s.

As to `COCCNC(=O)N1CCCN(C2=NS(=O)(=O)C(c3ccccc3)=C2C)CC1`, the RP-LC retention time worked out at 676 s. As for `Cc1noc(C)c1-c1ccc(S(=O)(=O)Nc2ccc(Cl)cc2)cc1`, the figure is 1000 s; as for `CC1CCCCN1CCN(CCC(=O)N1CCNCC1)C(=O)c1ccc(C(F)(F)F)cc1` (stereo not drawn), 569 s; as for `Cc1cccc(N2CC(C(=O)NC(C)C)CC2=O)c1` (stereo not drawn), 678 s. For `CCOC(=O)C1CCN(C(=O)c2cc3sc(C)cc3n2C)CC1` the value was 951 s.

With `COc1ccc(-c2nc3ccccn3c2Nc2ccc(Cl)cc2)cc1`, the RP-LC retention time was found to be 671 s. As for `NC1=N[C@@]2(c3cc(NC(=O)c4ccc(F)cn4)ccc3F)COC[C@H]2CS1`, the figure is 674 s; as for `Fc1ccc(-c2noc(CCc3nnc4ccc(N5CCN(C6CCCCC6)CC5)nn34)n2)cc1`, 653 s; as for `CCN(CC)C(=O)c1cc2c(s1)CCC(C(=O)NCc1ccncc1)C2` (stereo not drawn), 557 s. `Cc1cccc(CN2C(=O)N(c3ccc(F)cc3)c3ncccc3S2(=O)=O)c1` yielded an RP-LC retention time of 1090 s. `CCOC(=O)C1=C(CN2CCN(CC)CC2)NC(=O)NC1c1ccc(OC)cc1` (stereo not drawn) returned an RP-LC retention time of 599 s. For `COc1ccc(CN(Cc2ccccc2)Cc2cc(=O)n3cc(C)ccc3n2)cc1` the value was 696 s; for `CC(C)c1ccc(-c2noc(N3CCC(C(=O)NC4CCCCC4)CC3)n2)cc1`, 1180 s.

`CC(=O)Nc1ccc(NC(=O)c2cccc(N3C(=O)NC4CC3(C)Oc3ccccc34)c2)cc1` (stereo not drawn) came in with an RP-LC retention time of 702 s.

The record behind these values is the METLIN SMRT retention time set (Domingo-Almenara et al. 2019).
